Assay results from ChEMBL document CHEMBL4177696, “Identification of a diverse synthetic abietane diterpenoid library and insight into the structure-activity relationships for antibacterial activity” (Bioorg Med Chem Lett, 2017).
≈ marks a conversion by molar mass, not a printed value.

What was measured:
[1] = Cytotoxicity against human HL-7702 cells measured after 72 hrs by MTT assay; format: cell-based; settings: HL-7702 (L02) cells
Staphylococcus aureus = assay: Antibacterial activity against Staphylococcus aureus measured after 24 hrs; format: functional
Bacillus subtilis = assay: Antibacterial activity against Bacillus subtilis measured after 24 hrs; format: functional
[2] = Cytotoxicity against HFF measured after 72 hrs by MTT assay; format: cell-based; settings: human, HFF cells
Pseudomonas fluorescens = assay: Antibacterial activity against Pseudomonas fluorescens measured after 24 hrs; format: functional
Escherichia coli = assay: Antibacterial activity against Escherichia coli measured after 24 hrs; format: functional

SMILES | MIC (Staphylococcus aureus) [µg/mL] | MIC (Bacillus subtilis) [µg/mL] | MIC (Pseudomonas fluorescens) [µg/mL] | MIC (Escherichia coli) [µg/mL] | CC50 at 72 h [1] [µg/mL] | CC50 at 72 h [2] [µg/mL]
COC(=O)[C@]1(C)CCC[C@]2(C)c3ccc(C(C)C)c(NC(=O)Cn4cc(-c5cccnc5)nn4)c3CC[C@@H]12 | 3.1 (≈ 6.01 µM) | 12.5 (≈ 24.2 µM) | 6.3 (≈ 12.2 µM) | 3.1 (≈ 6.01 µM) | 47.9 (≈ 92.9 µM) | 48.2 (≈ 93.5 µM)
COC(=O)[C@]1(C)CCC[C@]2(C)c3ccc(C(C)C)c(NC(=O)Cn4cc(-c5cccc(NC(C)=O)c5)nn4)c3CC[C@@H]12 | 6.3 (≈ 11 µM) | 6.3 (≈ 11 µM) | 6.3 (≈ 11 µM) | 3.1 (≈ 5.42 µM) | 9.7 (≈ 17 µM) | 12.2 (≈ 21.3 µM)
COC(=O)[C@]1(C)CCC[C@]2(C)c3ccc(C(C)C)c(NC(=O)Cn4cc(-c5cncnc5)nn4)c3CC[C@@H]12 | 1.6 (≈ 3.1 µM) | 3.1 (≈ 6 µM) | 1.6 (≈ 3.1 µM) | 1.6 (≈ 3.1 µM) | 31.7 (≈ 61.4 µM) | 41.8 (≈ 80.9 µM)

Further compounds by falling MIC (Staphylococcus aureus), results first:

MIC (Staphylococcus aureus) [µg/mL] | MIC (Bacillus subtilis) [µg/mL] | MIC (Pseudomonas fluorescens) [µg/mL] | MIC (Escherichia coli) [µg/mL] | SMILES | CC50 at 72 h [1] [µg/mL] | CC50 at 72 h [2] [µg/mL]
6.3 (≈ 22.2 µM) | 6.3 (≈ 22.2 µM) | 6.3 (≈ 22.2 µM) | 3.1 (≈ 10.9 µM) | COc1cccc2c1CC[C@H]1[C@H]3COC(=O)C3=CC[C@]21C | 9.9 (≈ 34.8 µM) | 25.2 (≈ 88.6 µM)
3.1 (≈ 9.11 µM) | 6.3 (≈ 18.5 µM) | 3.1 (≈ 9.11 µM) | 3.1 (≈ 9.11 µM) | COc1c(C(C)C)ccc2c1[C@H](O)C=C1C3=C(CCC12C)C(=O)OC3 (single isomer, unassigned) | 10.3 (≈ 30.3 µM) | 9.2 (≈ 27 µM)
